Test results as given in patent US20040042984A1, “Skin whitening composition containing arbutin and glucosidase as active ingredients” (priority 2001, published 2004).

Tests used:
[1] = Stability of the mixed composition by decoloration (absorbance at 400 nm); type: physicochemical; details: for Absorbance (400 nm): 100 mM, reacted 37° C. 10 minutes pH 5.0, TCA, supernatant incubated at 37° C. for 24 hours; for Discoloration rate (% of decoloring of hydroquinone solution): hydroquinone solution regarded as 100%, 37° C. for 24 hours
Procedure: The absorbency was measured at 400 nm and the degree of discoloring can be expressed in the ratio of the extent of arbutin solution to that of hydroquinone solution.
The formula stability of arbutin-glucosidase mixed formula compared with the hydroquinone only formula was examined by the decoloration. 100 mM arbutin and each 1, 10 and 20 unit/ml glucosidase were reacted in 1 ml of sodium acetate buffer (pH 5.0) at 37° C. for 10 minutes. The reaction was terminated by cooling down in the ice water. Then its mixed 1 ml of cold 20% Trichloroacetic acid (TCA) was added to remove glucosidase activity. The mixture was centrifuged at 12000 rpm. The supernatant solution incubated at 37° C. for 24 hours and the absorbency was measured at […]. The degree of decoloration of hydroquinone was regarded as 100% and the ratio of other samples compared to hydroquinone were calculated. As the control, 100 mM arbutin and 100 mM hydroquinone solution (sigma, USA) was used.

[2] = system: skin of the lower part of the volunteers' arms; test: Occlusive patch test for primary skin irritation; type: in vivo, human; parameters: Response 24 h / Response 48 h: key to the marks not given beside the values; details: for skin irritation (in words): occlusive patch test
Procedure: In another preferred embodiments of this invention, the safety of this composition was tested by skin-irritation against the occlusive patch applied to healthy-adult volunteers. […] It is interpreted that the skin is more adaptable to the gradually increasing amount of irritant than the high concentration of irritant at a time.
The occlusive patch test was performed to examine skin irritation of the mixture of arbutin and glucosidase by 30 healthy adults. The test patches containing the solution of arbutin and glucosidase of preferred embodiment 2 were applied to the lower part of the volunteers' arms. After 24 hours, the patches were removed. The status of skin was observed from 30 minutes to 48 hours after removing the patches, and the degree of irritation has been classified as described in Table 3a.

| SMILES | Absorbance (400 nm) [1] | Discoloration rate (% of decoloring of hydroquinone solution) [1] | skin irritation (in words) [2] | skin irritation (in words) ([2]; listed as hydroquinone composition) | Response 24 h ([2]; occlusive patch, 30 healthy adults, 24 h) | Response 48 h ([2]; occlusive patch, 30 healthy adults, 48 h) |
| --- | --- | --- | --- | --- | --- | --- |
| OC[C@H]1O[C@@H](Oc2ccc(O)cc2)[C@H](O)[C@@H](O)[C@@H]1O [Arbutin solution, Arbutin] | 0.005 | 1.40% | – | – | – | – |
| Oc1ccc(O)cc1 [Hydroquinone solution, Hydroquinone] | 0.356 | 100% | very strong skin irritation | showed the positive irritation | +++ | +++ |
